Results on 27 compounds are retold here after US10239873B2, “7-azaindole or 4,7-diazaindole derivatives as IKKϵ epsilon and TBK1 inhibitor and pharmaceutical composition comprising same” (GREEN CROSS CORPORATION, priority 2015, dated 2019).

The assay deals with T1, TBK1 (Homo sapiens, UniProt Q9UHD2).
T1 construct: purchased Promega (Invitrogen is also named in the same bracket) V4158; PR8031B; V3991 (not assigned to the two kinases)
T1 sequence (Q9UHD2 1-729): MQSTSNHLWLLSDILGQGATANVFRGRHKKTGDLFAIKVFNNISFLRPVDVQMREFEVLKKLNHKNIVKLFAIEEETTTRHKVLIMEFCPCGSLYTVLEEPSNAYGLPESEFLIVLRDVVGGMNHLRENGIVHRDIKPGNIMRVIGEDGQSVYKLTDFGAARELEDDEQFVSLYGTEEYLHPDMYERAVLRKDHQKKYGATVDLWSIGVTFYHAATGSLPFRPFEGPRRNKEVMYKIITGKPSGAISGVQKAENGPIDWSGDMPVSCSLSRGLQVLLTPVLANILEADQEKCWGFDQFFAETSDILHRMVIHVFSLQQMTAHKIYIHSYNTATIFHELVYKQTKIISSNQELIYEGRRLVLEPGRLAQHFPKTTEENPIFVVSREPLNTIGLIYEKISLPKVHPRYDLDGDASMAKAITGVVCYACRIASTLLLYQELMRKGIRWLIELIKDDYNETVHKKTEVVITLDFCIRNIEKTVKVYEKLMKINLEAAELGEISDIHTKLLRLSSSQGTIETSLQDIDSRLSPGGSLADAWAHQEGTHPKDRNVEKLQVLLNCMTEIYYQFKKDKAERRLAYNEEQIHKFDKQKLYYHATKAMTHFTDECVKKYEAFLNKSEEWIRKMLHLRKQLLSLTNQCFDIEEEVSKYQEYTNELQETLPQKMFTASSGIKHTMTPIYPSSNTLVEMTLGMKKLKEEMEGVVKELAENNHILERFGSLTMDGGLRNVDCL
Nature of the assay: ADP-Glo Kinase Assay, inhibition activity on TBK1. The assay is classed as biochemical. The protocol:
Inhibition activities on IKKϵ and TBK1 were evaluated using the compounds of Examples 1 to 250.
The inhibition activities on IKKϵ and TBK1 were measured by a luminometer, IKKϵ/TBK1 Kinase Enzyme System (Promega, Ca# V4158; Invitrogen, PR8031B, Promega, Ca# V3991) and ADP-Glo Kinase Assay using ADP-Glo™ Kinase Analysis Kit (Promega, Ca# V9101) and a kinase reaction buffer [40 mM Tris(pH 7.5), 20 mM MgCl2, 0.1 mg/mL BSA] in accordance with the manufacturer's protocol.
In general terms: ADP-Glo first removes unused ATP, then detects ADP through luciferase.
What is called IC50 is the concentration needed to halve the response being measured. A high value points to a need for much substance. In turn, `CC(C)OC(=O)N1CC=C(c2c[nH]c3ncc(-c4cccc(S(C)(=O)=O)c4)cc23)CC1` [Example 149, Isopropyl 4-(5-(3-(methylsulfonyl)phenyl)-1H-pyrrolo[2,3-b]pyridin-3-yl)-5,6-dihydropyridine-1(2H)-carboxylate] had an IC50 of 0.03 µM. That is a double-digit nanomolar value.

Compound `CC(C)OC(=O)N1CC=C(c2c[nH]c3ncc(-c4ccc(S(N)(=O)=O)cc4)cc23)CC1` [Example 150, Isopropyl 4-(5-(4-sulfamoylphenyl)-1H-pyrrolo[2,3-b]pyridin-3-yl)-5,6-dihydropyridine-1(2H)-carboxylate] registered an IC50 of 0.036 µM.

As to `CC(C)(C)OC(=O)N1CC=C(c2c[nH]c3ncc(-c4cccc(S(N)(=O)=O)c4)cc23)CC1` [Example 151, tert-Butyl 4-(5-(3-sulfamoylphenyl)-1H-pyrrolo[2,3-b]pyridin-3-yl)-5,6-dihydropyridine-1(2H)-carboxylate], half-maximal inhibition (IC50) was put at 0.042 µM.

`CC(C)(C)OC(=O)N1CC=C(c2c[nH]c3ncc(-c4ccc(S(N)(=O)=O)cc4)cc23)CC1` [Example 152, tert-Butyl 4-(5-(4-sulfamoylphenyl)-1H-pyrrolo[2,3-b]pyridin-3-yl)-5,6-dihydropyridine-1(2H)-carboxylate] returned an IC50 of 0.081 µM. With `CC(C)(C)OC(=O)N1CC=C(c2c[nH]c3ncc(-c4ccc(CN5CCOCC5)s4)cc23)CC1` [Example 153, tert-Butyl 4-(5-(5-(morpholinomethyl)thiophen-2-yl)-1H-pyrrolo[2,3-b]pyridin-3-yl)-5,6-dihydropyridine-1(2H)-carboxylate] the figure was 0.8 µM.

For `CC(C)(C)OC(=O)N1CC=C(c2c[nH]c3ncc(-c4ccc(CN5CCOCC5)cc4)cc23)CC1` [Example 154, tert-Butyl 4-(5-(4-(morpholinomethyl)phenyl)-1H-pyrrolo[2,3-b]pyridin-3-yl)-5,6-dihydropyridine-1(2H)-carboxylate], the IC50 was determined as 0.32 µM. The value for `CC(C)(C)OC(=O)N1CC=C(c2c[nH]c3ncc(-c4ccc(C(=O)N5CCOCC5)cc4)cc23)CC1` [Example 155, tert-Butyl 4-(5-(4-(morpholine-4-carbonyl)phenyl)-1H-pyrrolo[2,3-b]pyridin-3-yl)-5,6-dihydropyridine-1(2H)-carboxylate] was 0.039 µM; that for `CC(C)(C)OC(=O)N1CC=C(c2c[nH]c3ncc(-c4cccc(CN5CCOCC5)c4)cc23)CC1` [Example 156, tert-Butyl 4-(5-(3-(morpholinomethyl)phenyl)-1H-pyrrolo[2,3-b]pyridin-3-yl)-5,6-dihydropyridine-1(2H)-carboxylate] was 0.26 µM; that for `CC(C)(C)OC(=O)N1CC=C(c2c[nH]c3ncc(-c4ccc(N5CCOCC5)nc4)cc23)CC1` [Example 157, tert-Butyl 4-(5-(6-morpholinopyridin-3-yl)-1H-pyrrolo[2,3-b]pyridin-3-yl)-5,6-dihydropyridine-1(2H)-carboxylate] was 0.36 µM. With `CC(C)(C)OC(=O)N1CC=C(c2c[nH]c3ncc(-c4ccc(N5CCOCC5)cc4)cc23)CC1` [Example 158, tert-Butyl 4-(5-(4-morpholinophenyl)-1H-pyrrolo[2,3-b]pyridin-3-yl)-5,6-dihydropyridine-1(2H)-carboxylate] the figure was 0.41 µM; with `CC(C)(C)OC(=O)N1CC=C(c2c[nH]c3ncc(-c4ccc(N5CCCCC5)cc4)cc23)CC1` [Example 159, tert-Butyl 4-(5-(4-(piperidin-1-yl)phenyl)-1H-pyrrolo[2,3-b]pyridin-3-yl)-5,6-dihydropyridine-1(2H)-carboxylate], 0.6 µM; with `CC(C)(C)OC(=O)N1CC=C(c2c[nH]c3ncc(-c4ccc5c(c4)OCO5)cc23)CC1` [Example 160, tert-Butyl 4-(5-(benzo[d][1,3]dioxol-5-yl)-1H-pyrrolo[2,3-b]pyridin-3-yl)-5,6-dihydropyridine-1(2H)-carboxylate], 2 µM.

For the compound `COc1ccc(-c2cnc3[nH]cc(C4=CCN(C(=O)OC(C)(C)C)CC4)c3c2)cn1` [Example 161, tert-Butyl 4-(5-(6-methoxypyridin-3-yl)-1H-pyrrolo[2,3-b]pyridin-3-yl)-5,6-dihydropyridine-1(2H)-carboxylate], the IC50 amounted to 0.6 µM.

For `CC(C)(C)OC(=O)N1CC=C(c2c[nH]c3ncc(-c4cccc(S(C)(=O)=O)c4)cc23)CC1` [Example 162, tert-Butyl 4-(5-(3-(methylsulfonyl)phenyl)-1H-pyrrolo[2,3-b]pyridin-3-yl)-5,6-dihydropyridine-1(2H)-carboxylate], half-maximal inhibition (IC50) was put at 0.078 µM.

For the compound `CNS(=O)(=O)c1cccc(-c2cnc3[nH]cc(C4=CCN(C(=O)OC(C)(C)C)CC4)c3c2)c1` [Example 163, tert-Butyl 4-(5-(3-(N-methylsulfamoyl)phenyl)-1H-pyrrolo[2,3-b]pyridin-3-yl)-5,6-dihydropyridine-1(2H)-carboxylate], the midpoint of inhibition, the IC50, lay at 0.059 µM. The value for `CC(C)(C)OC(=O)N1CC=C(c2c[nH]c3ncc(-c4ccc(S(C)(=O)=O)cc4)cc23)CC1` [Example 164, tert-Butyl 4-(5-(4-(methylsulfonyl)phenyl)-1H-pyrrolo[2,3-b]pyridin-3-yl)-5,6-dihydropyridine-1(2H)-carboxylate] was 0.25 µM. The value for `CNS(=O)(=O)c1ccc(-c2cnc3[nH]cc(C4=CCN(C(=O)OC(C)(C)C)CC4)c3c2)cc1` [Example 165, tert-Butyl 4-(5-(4-(N-methylsulfamoyl)phenyl)-1H-pyrrolo[2,3-b]pyridin-3-yl)-5,6-dihydropyridine-1(2H)-carboxylate] was 0.028 µM; that for `CC(=O)c1ccc(-c2cnc3[nH]cc(C4=CCN(C(=O)OC(C)(C)C)CC4)c3c2)cc1` [Example 166, tert-Butyl 4-(5-(4-acetylphenyl)-1H-pyrrolo[2,3-b]pyridin-3-yl)-5,6-dihydropyridine-1(2H)-carboxylate] was 0.95 µM. Take `COC(=O)c1ccc(-c2cnc3[nH]cc(C4=CCN(C(=O)OC(C)(C)C)CC4)c3c2)cc1` [Example 167, tert-Butyl 4-(5-(4-(methoxycarbonyl)phenyl)-1H-pyrrolo[2,3-b]pyridin-3-yl)-5,6-dihydropyridine-1(2H)-carboxylate]: inhibition was half-maximal at 1.6 µM (IC50).

On to `CC(C)(C)OC(=O)N1CC=C(c2c[nH]c3ncc(-c4ccc(C#N)cc4)cc23)CC1` [Example 168, tert-Butyl 4-(5-(4-cyanophenyl)-1H-pyrrolo[2,3-b]pyridin-3-yl)-5,6-dihydropyridine-1(2H)-carboxylate], for which it took 1.3 µM to reach half-maximal inhibition (IC50). This IC50 and that of the compound before are within 1.5-fold of each other. The value for `CC(C)(C)OC(=O)N1CC=C(c2c[nH]c3ncc(-c4cccc(C#N)c4)cc23)CC1` [Example 169, tert-Butyl 4-(5-(3-cyanophenyl)-1H-pyrrolo[2,3-b]pyridin-3-yl)-5,6-dihydropyridine-1(2H)-carboxylate] was 4.5 µM; that for `COc1ccc(-c2cnc3[nH]cc(C4=CCN(C(=O)OC5CCCC5)CC4)c3c2)cc1F` [Example 171, Cyclopentyl 4-(5-(3-fluoro-4-methoxyphenyl)-1H-pyrrolo[2,3-b]pyridin-3-yl)-5,6-dihydropyridine-1(2H)-carboxylate] was 0.88 µM. The value for `CS(=O)(=O)c1cccc(-c2cnc3[nH]cc(C4=CCN(C(=O)OC5CCCC5)CC4)c3c2)c1` [Example 172, Cyclopentyl 4-(5-(3-(methylsulfonyl)phenyl)-1H-pyrrolo[2,3-b]pyridin-3-yl)-5,6-dihydropyridine-1(2H)-carboxylate] was 0.055 µM. With `CS(=O)(=O)c1ccc(-c2cnc3[nH]cc(C4=CCN(C(=O)OC5CCCC5)CC4)c3c2)cc1` [Example 173, Cyclopentyl 4-(5-(4-(methylsulfonyl)phenyl)-1H-pyrrolo[2,3-b]pyridin-3-yl)-5,6-dihydropyridine-1(2H)-carboxylate] the figure was 0.12 µM; with `CCS(=O)(=O)c1cccc(-c2cnc3[nH]cc(C4=CCN(C(=O)OC5CCCC5)CC4)c3c2)c1` [Example 174, Cyclopentyl 4-(5-(3-(ethylsulfonyl)phenyl)-1H-pyrrolo[2,3-b]pyridin-3-yl)-5,6-dihydropyridine-1(2H)-carboxylate], 0.19 µM. With `O=C(OC1CCCC1)N1CC=C(c2c[nH]c3ncc(-c4ccc(S(=O)(=O)C5CC5)cc4)cc23)CC1` [Example 175, Cyclopentyl 4-(5-(4-(cyclopropylsulfonyl)phenyl)-1H-pyrrolo[2,3-b]pyridin-3-yl)-5,6-dihydropyridine-1(2H)-carboxylate], the IC50 was 0.35 µM.

Turning to `NS(=O)(=O)c1ccc(-c2cnc3[nH]cc(C4=CCN(C(=O)OC5CCCC5)CC4)c3c2)cc1` [Example 176, Cyclopentyl 4-(5-(4-sulfamoylphenyl)-1H-pyrrolo[2,3-b]pyridin-3-yl)-5,6-dihydropyridine-1(2H)-carboxylate], the IC50 amounted to 0.052 µM.
